Assay results reported in patent publication US9713615B2, “Tetrahydroisoquinolin-2-yl-(quinazolin-4-yl)methanone compounds” (Rexahn Pharmaceuticals, Inc., priority 2013, dated 2017).
Read-outs that look alike come from different tables or passages of the source.

Tests used:
[1] = system: MDA-MB-231 (breast); assay: SRB growth inhibition assay, MDA-MB-231; assay type: cell-based, Human; settings: read-out: Inhibition of cell growth (IC50, μM) MDA-MB-231
Excerpt: (§1) Cancer cells used in this study to determine the effect of tetrahydroisoquinolin-2-yl-(quinazolin-4-yl)methanone compounds were obtained from the following sources: Human OVCAR-3 (ovary), SK-MEL-28 (melanoma), MDA-MB-231 (breast), HeLa (cervix), PC3 (prostate), HepG2 (liver), A549 (lung), Caki-1 (kidney), HCT116 (colon) and PANC-1 (pancreas) from the American Type Culture Collection (ATCC) (Manassas, Va.); U251 (brain) from Riken (Japan); MKN-45 (stomach) from DSMZ (Germany). All cell lines except MDA-MB-231, HCT116, Caki-1 and PANC-1 were grown in RPMI1640 medium (Invitrogen, Carlsbad, Calif.) supplemented with 10% fetal bovine serum (“FBS”), 1 mM sodium pyruvate, 10 mM HEPES and 100 U/ml penicillin and 100 μg/ml streptomycin (“P/S”). MDA-MB-231, HCT116, Caki-1 and PANC-1 cells were maintained in Dulbecco's modified Eagle's medium (“DMEM”, Invitrogen) supplemented with 10% FBS, P/S, 10 mM HEPES and 2 mM L-glutamine. All cells were incubated at 37° C. under humidified 5% CO2.
(§2) The growth inhibition of the tetrahydroisoquinolin-2-yl-(quinazolin-4-yl)methanone compounds against a variety of human tumor cells was evaluated to study the relative importance of particular substituent groups on the compounds. The tetrahydroisoquinolin-2-yl-(quinazolin-4-yl)methanone compounds, prepared as described above, were tested with DMSO as a control.
(§3) The growth inhibition assay of representative tetrahydroisoquinolin-2-yl-(quinazolin-4-yl)methanone derivatives against human tumor cell lines was performed using the Sulforhodamine B (“SRB”) method (Skehan et al., J. National Cancer Institute, 82: 1107-1112 (1990)). Briefly, exponentially growing tumor cells were seeded into a 96-well plate at a density of 2-3×10^3 cells/well and treated with tetrahydroisoquinolin-2-yl-(quinazolin-4-yl)methanone compounds the next day. Triplicate wells were used for each treatment. The cells were incubated with the various compounds for 96 hours at 37° C. in a humidified 5% CO2 atmosphere. After 96-hour incubation, cells were fixed with 10% trichloroacetic acid (“TCA”), incubated for 1 hour at 4° C., and washed 3 times with tap water. Subsequently, cells were stained with 0.4% sulforhodamine B in 1% acetic acid for 30 minutes, washed 4 times with 1% acetic acid, and air-dried again After 5 minutes agitation in 10 mM Tris solution, the absorbance of each well was measured at 530 nm using Benchmark Plus Microplate reader (Bio-Rad Laboratories, Hercules, Calif.).
(§4) To translate the OD530 values into the number of live cells in each well, the OD530 values were compared to those on standard OD530-versus-cell number curves generated for each cell line. The percent survival was calculated using the formula: % Survival=live cell number [test]/live cell number [control]×100
(§5) The IC50 values were calculated by non-linear regression analysis.
(§6) The compounds were screened against at […] including PANC-1, MDA-MB-231, HCT116 and Caki-1, at approximately 1 μM concentration. The inhibition of cell growth (IC50, μM) of some tetrahydroisoquinolin-2-yl-(quinazolin-4-yl)methanone compounds are shown in Table 2.

[2] = system: HCT116 (colon); assay: SRB growth inhibition assay, HCT116; assay type: cell-based, Human; settings: read-out: Inhibition of cell growth (IC50, μM) HCT116
Excerpt: as §1, §2, §3, §4, §5, §6

[3] = system: Caki-1 (kidney); assay: SRB growth inhibition assay, Caki-1; assay type: cell-based, Human; settings: read-out: Inhibition of cell growth (IC50, μM) Caki-1
Excerpt: as §1, §2, §3, §4, §5, §6

[4] = system: PANC-1 (pancreas); assay: SRB growth inhibition assay, PANC-1; assay type: cell-based, Human; settings: read-out: Inhibition of cell growth (IC50, μM) Panc-1
Excerpt: as §1, §2, §3, §4, §5, §6

[5] = system: MKN-45 (stomach); assay: SRB growth inhibition assay, MKN-45; assay type: cell-based; settings: Homo sapiens, 96 hours incubation, read-out: Inhibition of cell growth (IC50, μM) MKN-45
Excerpt: as §1, §2, §3, §4, §5

[6] = system: SK-MEL-28 (melanoma); assay: SRB growth inhibition assay, SK-MEL-28; assay type: cell-based; settings: Homo sapiens, 96 hours incubation, read-out: Inhibition of cell growth (IC50, μM) SK-MEL-28
Excerpt: as §1, §2, §3, §4, §5

[7] = system: HeLa (cervix); assay: SRB growth inhibition assay, HeLa; assay type: cell-based; settings: Homo sapiens, 96 hours incubation, read-out: Inhibition of cell growth (IC50, μM) HeLa
Excerpt: as §1, §2, §3, §4, §5

[8] = system: OVCAR-3 (ovary); assay: SRB growth inhibition assay, OVCAR-3; assay type: cell-based; settings: Homo sapiens, 96 hours incubation, read-out: Inhibition of cell growth (IC50, μM) Ovcar3
Excerpt: as §1, §2, §3, §4, §5

[9] = system: U251 (brain); assay: SRB growth inhibition assay, U251; assay type: cell-based; settings: Homo sapiens, U-251, 96 hours incubation, read-out: Inhibition of cell growth (IC50, μM) U251
Excerpt: as §1, §2, §3, §4, §5

[10] = system: HepG2 (liver); assay: SRB growth inhibition assay, HepG2; assay type: cell-based; settings: Homo sapiens, 96 hours incubation, read-out: Inhibition of cell growth (IC50, μM) HepG2
Excerpt: as §1, §2, §3, §4, §5

[11] = Homo sapiens, MDA-MB-231, 96 hours incubation
[12] = Homo sapiens, HCT-116, 96 hours incubation
[13] = Homo sapiens, CAKI-1, 96 hours incubation
[14] = Homo sapiens, PANC-1, 96 hours incubation

Row | IC50 [1, 11] [µM] | IC50 [2, 12] [µM] | IC50 [4, 14] [µM] | Molecule | IC50 [3, 13] [µM] | also measured
1 | 0.9 | 1.1 | 0.53 | COc1ccc2c(c1)CCN(C(=O)c1nc(-c3ccc(F)cc3)nc3ccccc13)C2 [Compound 7, 2-[[2-(4-fluorophenyl)quinazolin-4-yl]carbonyl]-6-methoxy-1,2,3,4-tetrahydroisoquinoline] | 0.61 | IC50 [5]: 0.19 µM; IC50 [6]: 0.36 µM; IC50 [7]: 0.24 µM; IC50 [8]: 0.16 µM; IC50 [9]: 0.64 µM; IC50 [10]: 0.72 µM
2 | 0.23 | 0.29 | 0.18 | COc1ccc2c(c1O)CCN(C(=O)c1nc(-c3ccc(C)cc3)nc3ccccc13)C2 [Compound 12, 2-[[2-(4-methylphenyl)quinazolin-4-yl]carbonyl]-5-hydroxy-6-methoxy-1,2,3,4-tetrahydroisoquinoline] | 0.2 | 
3 | 1.2 | 1.39 | 1.45 | COc1ccc2c(c1OC)CCN(C(=O)c1nc(-c3ccc(F)cc3)nc3ccccc13)C2 [Compound 3, 2-[[2-(4-fluorophenyl)quinazolin-4-yl]carbonyl]-5,6-dimethoxy-1,2,3,4-tetrahydroisoquinoline] | 1.1 | 
4 | 0.67 | 1.12 | 0.93 | Cc1ccc2c(c1O)CCN(C(=O)c1nc(-c3cccnc3)nc3ccccc13)C2 [Compound 88, 2-[[2-(3-pyridinyl)quinazolin-4-yl]carbonyl]-5-hydroxy-6-methyl-1,2,3,4-tetrahydroisoquinoline] | 0.97 | 
5 |  |  |  | 2-[[2-(3-fluorophenyl)phenyl)quinazolin-4-yl]carbonyl]-5-hydroxy-6-methyl-1,2,3,4-tetrahydroisoquinoline [Compound 46] |  | IC50 ([1]; 96 hours incubation): 0.58 µM; IC50 ([2]; 96 hours incubation): 0.54 µM; IC50 ([3]; 96 hours incubation): 0.52 µM; IC50 ([4]; 96 hours incubation): 0.51 µM
6 | 0.49 | 0.81 | 0.5 | COc1cccc(-c2nc(C(=O)N3CCc4c(ccc(OC)c4O)C3)c3ccccc3n2)c1 [Compound 47, 2-[[2-(3-methoxylphenyl)quinazolin-4-yl]carbonyl]-5-hydroxy-6-methoxy-1,2,3,4-tetrahydroisoquinoline] | 0.59 | 
7 | 0.41 | 0.49 | 0.46 | COc1ccc(-c2nc(C(=O)N3CCc4c(ccc(OC)c4OC)C3)c3ccccc3n2)cc1 [Compound 24, 2-[[2-(4-methoxylphenyl)quinazolin-4-yl]carbonyl]-5,6-dimethoxy-1,2,3,4-tetrahydroisoquinoline] | 0.38 | 
8 | 1.5 | 2.05 | 1.72 | Cc1ccc(-c2nc(C(=O)N3CCc4c(ccc(C)c4O)C3)c3ccccc3n2)cc1 [Compound 16, 2-[[2-(4-methylphenyl)quinazolin-4-yl]carbonyl]-5-hydroxy-6-methyl-1,2,3,4-tetrahydroisoquinoline] | 1.61 | 
9 | 0.42 | 0.55 | 0.43 | COc1ccc2c(c1O)CCN(C(=O)c1nc(-c3ccc(C(F)(F)F)cc3)nc3ccccc13)C2 [Compound 37, 2-[[2-(4-(trifluoromethyl)phenyl)quinazolin-4-yl]carbonyl]-5-hydroxy-6-methoxy-1,2,3,4-tetrahydroisoquinoline] | 0.36 | 
10 | 0.46 | 0.55 | 0.49 | COc1ccc2c(c1OC)CCN(C(=O)c1nc(-c3ccncn3)nc3ccccc13)C2 [Compound 72, 2-[[2-(4-pyrimidinyl)quinazolin-4-yl]carbonyl]-5,6-dimethoxy-1,2,3,4-tetrahydroisoquinoline] | 0.39 | 
11 | 0.19 | 0.22 | 0.18 | COc1ccc(-c2nc(C(=O)N3CCc4c(ccc(C)c4O)C3)c3ccccc3n2)cc1 [Compound 26, 2-[[2-(4-methoxylphenyl)quinazolin-4-yl]carbonyl]-5-hydroxy-6-methyl-1,2,3,4-tetrahydroisoquinoline] | 0.16 | 
12 | 0.2 | 0.34 | 0.21 | COc1ccc2c(c1O)CCN(C(=O)c1nc(-c3ccc(NC(C)=O)cc3)nc3ccccc13)C2 [Compound 62, 2-[[2-(4-acetamidophenyl)quinazolin-4-yl]carbonyl]-5-hydroxy-6-methoxy-1,2,3,4-tetrahydroisoquinoline] | 0.2 | 
13 | 0.63 | 0.91 | 0.85 | Cc1ccc2c(c1O)CCN(C(=O)c1nc(-c3ccc(Cl)cc3)nc3ccccc13)C2 [Compound 31, 2-[[2-(4-chlorophenyl)quinazolin-4-yl]carbonyl]-5-hydroxy-6-methyl-1,2,3,4-tetrahydroisoquinoline] | 0.64 | 
14 | 1 | 1.26 | 1.43 | COc1ccc2c(c1OC)CCN(C(=O)c1nc(-c3cscn3)nc3ccccc13)C2 [Compound 81, 2-[[2-(4-thiazolyl)quinazolin-4-yl]carbonyl]-5,6-dimethoxy-1,2,3,4-tetrahydroisoquinoline] | 1.21 | 
15 | 1.84 | 2.76 | 2.31 | Cc1ccc2c(c1O)CCN(C(=O)c1nc(-c3ccc(F)cc3F)nc3ccccc13)C2 [Compound 61, 2-[[2-(2,4-difluorophenyl)quinazolin-4-yl]carbonyl]-5-hydroxy-6-methyl-1,2,3,4-tetrahydroisoquinoline] | 2.47 | 
16 | 0.27 | 0.34 | 0.22 | Cc1ccc2c(c1O)CCN(C(=O)c1nc(-c3ccccc3)nc3ccccc13)C2 [Compound 21, 2-[[2-phenylquinazolin-4-yl]carbonyl]-5-hydroxy-6-methyl-1,2,3,4-tetrahydroisoquinoline] | 0.23 | 
17 | 0.17 | 0.2 | 0.17 | COc1ccc2c(c1O)CCN(C(=O)c1nc(-c3cscn3)nc3ccccc13)C2 [Compound 79, 2-[[2-(4-thiazolyl)quinazolin-4-yl]carbonyl]-5-hydroxy-6-methoxy-1,2,3,4-tetrahydroisoquinoline] | 0.16 | 
18 | 0.21 | 0.29 | 0.23 | Cc1ccc2c(c1O)CCN(C(=O)c1nc(-c3cscn3)nc3ccccc13)C2 [Compound 83, 2-[[2-(4-thiazolyl)quinazolin-4-yl]carbonyl]-5-hydroxy-6-methyl-1,2,3,4-tetrahydroisoquinoline] | 0.25 | 
